Activity calls are given as the source filed them. The calls are words filed in the database; no cut-off is given here.
What was measured:
Assay type in all cases: functional, organism-based
Plasmodium berghei [1] = assay: Antimalarial activity against Plasmodium berghei infected in mouse assessed as complete cure at 40 mg/kg; set-up: dose 40 mg/kg
Plasmodium berghei [2] = assay: Antimalarial activity against Plasmodium berghei infected in mouse at 10 mg/kg; set-up: dose 10 mg/kg
Plasmodium berghei [3] = assay: Antimalarial activity against Plasmodium berghei infected in mouse assessed as complete cure at 160 mg/kg; set-up: dose 160 mg/kg
Plasmodium berghei [4] = assay: Antimalarial activity against Plasmodium berghei infected in mouse at 20 mg/kg; set-up: dose 20 mg/kg

Structure (SMILES) | Activity (Plasmodium berghei [1]) | Activity (Plasmodium berghei [2]) | Activity (Plasmodium berghei [3]) | Activity (Plasmodium berghei [4])
CCCCN(CCCC)CC(O)c1c2c(nc3c(C)cc(C)cc13)/C(=C/c1ccc(Cl)cc1)CC2 (stereo not given) | Active | Active | – | –
Cc1cc(C)c2nc3c(c([C@H]4OC(c5ccc(Cl)cc5)N5CCCC[C@H]45)c2c1)CCC3 (mixture of isomers) | inactive | – | – | –
CCCCN(CCCC)CC(O)c1cc(/C=C/c2ccc(Cl)cc2)nc2c(C)cc(C)cc12 (stereo not given) | – | – | Active | Active
